The assay deals with Plasmodium berghei. Put plainly: Luciferase/luciferin-expressing antifolate-resistant parasites were used to infect a culture of HepG2 cells that were pre-incubated with compounds. Infected hepatocytes emit light due to the luciferase reaction. Assay results are presented as the percent inhibition of light emission compared to control. […]. The class given is functional. As to conditions: sporozoite; for IC90: read-out: LUCIFERASE INFECTION ASSAY - IC90.

As to `CCS(=O)(=O)N1Cc2ccccc2CC1C(=O)Nc1nc2ccc(F)cc2s1` (configuration not stated), the IC90 is over 10 µM. Besides, the IC50 (PBLUC_HILL_SLOPE 0.63, PBLUC_R_SQUARED 0.752, read-out: LUCIFERASE INFECTION ASSAY - IC50) stood at 2.29 µM.
In the case of `Cc1ccc(OCC(=O)N(Cc2ccccc2)c2c(N)n(Cc3ccccc3)c(=O)[nH]c2=O)c(C)c1`, the IC90 is over 10 µM. Also, under “PBLUC_HILL_SLOPE 0.649, PBLUC_R_SQUARED 0.141, read-out: LUCIFERASE INFECTION ASSAY - IC50”, the IC50 was over 10 µM.
For the compound `COCC(C)n1c(C)cc(C(=O)CSc2ccc(NC(C)=O)cc2)c1C` (configuration not stated), the IC90 is over 10 µM. The IC50 (PBLUC_HILL_SLOPE 0.698, PBLUC_R_SQUARED 0.74, read-out: LUCIFERASE INFECTION ASSAY - IC50) stood at 0.948 µM.
As for `COc1ccccc1CNc1nc(NCc2cccc(OC)c2OC)c2sccc2n1`, the IC90 is over 7.56 µM. Also, where the note is “PBLUC_HILL_SLOPE 0.707, PBLUC_R_SQUARED 0.411, read-out: LUCIFERASE INFECTION ASSAY - IC50”, the IC50 is 2.69 µM.
In the case of `COc1ccc(C)cc1CN1CCN(c2ccc(S(=O)(=O)NC(C)(C)C)cc2[N+](=O)[O-])CC1`, the IC90 was over 10 µM. The IC50 (PBLUC_HILL_SLOPE 0.589, PBLUC_R_SQUARED 0.215, read-out: LUCIFERASE INFECTION ASSAY - IC50) is over 10 µM.
For the compound `CCOC(=O)c1c(/C=C/C(=O)Nc2nc(C)cs2)c(C)n(CC)c1C`, the IC90 was over 10 µM. Moreover, the IC50 (PBLUC_HILL_SLOPE 0.644, PBLUC_R_SQUARED 0.0145, read-out: LUCIFERASE INFECTION ASSAY - IC50) was over 10 µM.
Consider `C=CCn1c(C)cc(C(=O)Cn2nnc(-c3ccccc3C)n2)c1C`, for which the IC90 is over 10 µM. For the same compound, the IC50 (PBLUC_HILL_SLOPE 0.683, PBLUC_R_SQUARED 0.219, read-out: LUCIFERASE INFECTION ASSAY - IC50) was over 10 µM.
For the compound `O=C1C=CC(=O)N1c1ccccc1Oc1ccc(Cl)cc1Cl`, the IC90 was over 9.88 µM. Moreover, where the note is “PBLUC_HILL_SLOPE 0.641, PBLUC_R_SQUARED 0.0559, read-out: LUCIFERASE INFECTION ASSAY - IC50”, the IC50 was over 9.88 µM.
For `CC1CC(NC(=S)NCc2csc3ccccc23)CC(C)(C)C1` (configuration not stated), the IC90 is over 9.52 µM. Further, the IC50 (PBLUC_HILL_SLOPE 0.667, PBLUC_R_SQUARED 0.384, read-out: LUCIFERASE INFECTION ASSAY - IC50) is over 9.52 µM.
In the case of `O=C(Cc1coc2cc3c(cc12)CCC3)OCc1nccn1C(F)F`, the IC90 was over 10 µM. In addition, the IC50 (PBLUC_HILL_SLOPE 0.616, PBLUC_R_SQUARED 0.411, read-out: LUCIFERASE INFECTION ASSAY - IC50) was over 10 µM.
Turning to `CCCCn1c(N)c(-c2nc(CC(C)(C)C)c(C(=O)c3ccc(Br)s3)s2)c(=O)n(C)c1=O`, the IC90 is over 10 µM. Where the note is “PBLUC_HILL_SLOPE 0.7, PBLUC_R_SQUARED 0.683, read-out: LUCIFERASE INFECTION ASSAY - IC50”, the IC50 turned out to be 2.73 µM.
With `O=C(Nc1cccc(C(F)(F)F)c1)Nc1cnn(-c2ccc(Cl)cc2)c1C(F)(F)F`, the IC90 was over 7.35 µM. For the same compound, the IC50 (PBLUC_HILL_SLOPE 0.579, PBLUC_R_SQUARED 0.471, read-out: LUCIFERASE INFECTION ASSAY - IC50) was 1.04 µM.
For `CCc1ccc(S(=O)(=O)Nc2cc(Cl)c(O)c3ccccc23)cc1`, the IC90 was over 10 µM. Also, the IC50 (PBLUC_HILL_SLOPE 0.706, PBLUC_R_SQUARED 0.416, read-out: LUCIFERASE INFECTION ASSAY - IC50) stood at 1.42 µM.
For the compound `O=C(Nc1ccc2c(c1)OC1(CCCCC1)O2)c1ccc[nH]c1=S`, the IC90 came out at 4.02 µM. In addition, under “PBLUC_HILL_SLOPE 0.703, PBLUC_R_SQUARED 0.661, read-out: LUCIFERASE INFECTION ASSAY - IC50”, the IC50 was 0.176 µM.
Regarding `Cc1cc(N2CCN(C)CC2)n2ncc(-c3ccc(F)cc3)c2n1`, the IC90 was over 10.1 µM. In addition, the IC50 (PBLUC_HILL_SLOPE 0.664, PBLUC_R_SQUARED 0.928, read-out: LUCIFERASE INFECTION ASSAY - IC50) turned out to be 0.571 µM.
Consider `Cc1cc(-c2nc(=O)c3ccccc3[nH]2)c(C)n1-c1cccc(S(=O)(=O)N2CCOCC2)c1`, for which the IC90 is over 10 µM. For the same compound, the IC50 (PBLUC_HILL_SLOPE 0.619, PBLUC_R_SQUARED 0.0201, read-out: LUCIFERASE INFECTION ASSAY - IC50) is over 10 µM.
In the case of `CCc1cccc2c(/C=C(/C(=O)NCc3ccccn3)c3nc4ccccc4[nH]3)c[nH]c12`, the IC90 is over 10 µM. Besides, the IC50 (PBLUC_HILL_SLOPE 0.583, PBLUC_R_SQUARED 0.274, read-out: LUCIFERASE INFECTION ASSAY - IC50) was over 10 µM.
For the compound `c1ccc(OCc2nc3ccccc3n2-c2cc(-c3ccccc3)n[nH]2)cc1`, the IC90 is over 10 µM. Besides, where the note is “PBLUC_HILL_SLOPE 0.678, 16.2, PBLUC_R_SQUARED 0.350, 0.0461, read-out: LUCIFERASE INFECTION ASSAY - IC50”, the IC50 came out at 9.43 µM.
With `Cc1ccc(S(=O)(=O)NNC(=O)COc2ccc(SC(F)(F)F)cc2)cc1`, the IC90 was over 7.85 µM. Also, for the setting “PBLUC_HILL_SLOPE 0.658, PBLUC_R_SQUARED 0.0672, read-out: LUCIFERASE INFECTION ASSAY - IC50”, the IC50 was over 7.85 µM.
Regarding `CC(C)(C)CC(=O)Nc1ccc2nc(-c3cccs3)nn2c1`, the IC90 was over 10 µM. Moreover, where the note is “PBLUC_HILL_SLOPE 0.64, PBLUC_R_SQUARED 0.361, read-out: LUCIFERASE INFECTION ASSAY - IC50”, the IC50 was 2.36 µM.
For `Cc1cc(C(=O)CSC2=NCCS2)c(C)n1-c1ccc(F)cc1`, the IC90 is over 10 µM. The IC50 (PBLUC_HILL_SLOPE 0.709, PBLUC_R_SQUARED 0.459, read-out: LUCIFERASE INFECTION ASSAY - IC50) was 2.87 µM.
In the case of `Cc1cc(C)c(C#N)c(SCC(=O)N(C)Cc2cnn(-c3ccccc3)c2)n1`, the IC90 is over 10 µM. Under “PBLUC_HILL_SLOPE 0.688, PBLUC_R_SQUARED 0.271, read-out: LUCIFERASE INFECTION ASSAY - IC50”, the IC50 amounted to 4.09 µM.
As for `Cn1c(C=C2NC(c3cnccn3)=NO2)n[nH]c1=S`, the IC90 was over 12 µM. Besides, the IC50 (PBLUC_HILL_SLOPE 0.666, PBLUC_R_SQUARED 0.147, read-out: LUCIFERASE INFECTION ASSAY - IC50) is over 12 µM.
With `CC(C)(C)n1ncc(C(=O)NCCOc2ccccc2)c1C(F)(F)F`, the IC90 was over 10 µM. Also, the IC50 (PBLUC_HILL_SLOPE 0.7, PBLUC_R_SQUARED 0.775, read-out: LUCIFERASE INFECTION ASSAY - IC50) worked out at 0.591 µM.
On to `CCOC(=O)c1c(NC(=O)Cn2c(=O)c(C#N)c3n(c2=O)CCC3)sc(C)c1CC`, for which the IC90 is over 10 µM. The IC50 (PBLUC_HILL_SLOPE 0.645, PBLUC_R_SQUARED 0.0864, read-out: LUCIFERASE INFECTION ASSAY - IC50) is over 10 µM.
For the compound `O=C(NCC1CC1)Nc1csc(Cc2c(Cl)cccc2Cl)n1`, the IC90 is over 9.26 µM. In addition, the IC50 (PBLUC_HILL_SLOPE 0.58, PBLUC_R_SQUARED 0.694, read-out: LUCIFERASE INFECTION ASSAY - IC50) is over 9.26 µM.
Consider `Cc1cc(=O)oc2cc(OCc3ccc(C(=O)Nc4nc5ccccc5[nH]4)cc3)ccc12`, for which the concentration for an effect of 90% (IC90) is over 10 µM. Moreover, the IC50 (PBLUC_HILL_SLOPE 0.6, PBLUC_R_SQUARED 0.47, read-out: LUCIFERASE INFECTION ASSAY - IC50) stood at 3.19 µM.
On to `CC(C)(C)c1ccc(C(=O)Nc2cc(Cl)ccc2OC(=O)c2ccc(C(C)(C)C)cc2)cc1`, for which the IC90 is over 7.11 µM. The IC50 (PBLUC_HILL_SLOPE 0.69, PBLUC_R_SQUARED 0.715, read-out: LUCIFERASE INFECTION ASSAY - IC50) worked out at 0.555 µM.
Consider `COc1ccc(CNCc2ccc(N3CCCCCC3)cc2)cc1`, for which the IC90 was over 10 µM. The IC50 (PBLUC_HILL_SLOPE 0.677, PBLUC_R_SQUARED 0.204, read-out: LUCIFERASE INFECTION ASSAY - IC50) was over 10 µM.
Take `Cc1c(C)n(CCCO)c2ncn3nc(-c4cccs4)nc3c12`: the IC90 was over 10.1 µM. The concentration for half-maximal inhibition (IC50) (PBLUC_HILL_SLOPE 0.662, PBLUC_R_SQUARED 0.606, read-out: LUCIFERASE INFECTION ASSAY - IC50) was 4.42 µM.
Turning to `CCN(CC)CCNC(=O)c1ccc(-c2ccccc2)cc1`, the IC90 is over 11.1 µM. Moreover, the half-inhibitory concentration (IC50) (PBLUC_HILL_SLOPE 0.701, PBLUC_R_SQUARED 0.65, read-out: LUCIFERASE INFECTION ASSAY - IC50) was found to be 5.34 µM.
Take `COc1ccc(CCNC(=O)c2ccc3cc[nH]c3c2)cc1`: the IC90 was over 11.2 µM. The IC50 (PBLUC_HILL_SLOPE 0.599, PBLUC_R_SQUARED 0.245, read-out: LUCIFERASE INFECTION ASSAY - IC50) was found to be 4.75 µM.
For `COc1cccc(C(=O)N(c2nc3ccccc3s2)c2c(C)cccc2C)c1`, the IC90 is over 10 µM. Moreover, the IC50 (PBLUC_HILL_SLOPE 0.58, PBLUC_R_SQUARED 0.199, read-out: LUCIFERASE INFECTION ASSAY - IC50) was over 10 µM.
For the compound `O=C(CCc1ccc2c(c1)OCO2)Nc1nc(-c2ccc(Br)s2)cs1`, the IC90 was over 10 µM. Also, under “PBLUC_HILL_SLOPE 0.607, PBLUC_R_SQUARED 0.509, read-out: LUCIFERASE INFECTION ASSAY - IC50”, the IC50 was 5.99 µM.
As to `CC(C)(C)c1ccc(C(=O)Nc2nnc(Sc3ccc([N+](=O)[O-])cc3C#N)s2)cc1`, the IC90 came out at 4.98 µM. Besides, under “PBLUC_HILL_SLOPE 0.682, PBLUC_R_SQUARED 0.567, read-out: LUCIFERASE INFECTION ASSAY - IC50”, the IC50 came to 0.198 µM.
In the case of `CN(C)CC(C)(C)CNc1nn2cc(-c3ccccc3)nc2s1`, the IC90 is over 10 µM. In addition, the IC50 (PBLUC_HILL_SLOPE 0.619, PBLUC_R_SQUARED 0.654, read-out: LUCIFERASE INFECTION ASSAY - IC50) was determined as 0.732 µM.

By IC50 is commonly meant the midpoint of a concentration-inhibition curve. Usually IC90 stands for the concentration needed for an effect of 90%.

Values taken from ChEMBL document CHEMBL4483862, “Open-source discovery of chemical leads for next-generation chemoprotective antimalarials” (2018).
